Earlier results, collected in patent US20170151272A1, “A NOVEL PHARMACEUTICAL COMPOSITION OF […] RIBAVIRIN” (SANOVEL ILAC SANAYI VE TICARET ANONIM SIRKETI, priority 2014, published 2017).

Tested on: chronic hepatitis C (CHC) infections
Details: ribavirin alone

1-β-Dribofuranosyl-1H-1,2,4-triazole-3-carboxamide [Ribavirin]
sustained virologic response: did not produce any sustained virologic response | HCV RNA levels (during or after therapy): did not reduce | alanine aminotransferase (ALT) levels (during the course of treatment, some patients with CHC): normalize W201 alanine aminotransferase (ALT) levels transiently
